Laboratory results reported in patent US20050220800A1, “Cytokines and cytokine receptors with reduced immunogenicity” (priority 2002, published 2005).

How the values were obtained:
HLA-DR and -DQ antigens = assay: HLA association with response to epitope peptide #40; set-up: species or system human; settings: for percent non-responsive / percent responsive / relative risk: 186 donors
Experimental: The HLA-DR and DQ expression of all the donors tested in both rounds of assay testing described above were assessed using a commercially available PCR-based HLA typing kit (Bio-Synthesis). The phenotypic frequencies of individual HLA-DR and -DQ antigens among responders and non-responders to peptide #40 were tested using a chi-squared analysis with 1 degree of freedom. The increased or decreased likelihood of reacting to epitope #40, the relative risk, was calculated wherever the HLA antigen in question was present in both responding and non-responding donor samples.
A total of 186 donors were completely HLA typed, and were included in the analysis for epitope peptide #40.
The magnitude of the proliferative response to peptide #40 in responders and non-responders expressing HLA-DQ6 was also analyzed. […] As a control, non-responders to the peptide returned the same level of proliferation the peptide regardless of their expression of HLA-DQ6.

human CD4+ T-cells [1] = assay: I-MUNE assay of IFN-β variant peptides; type: cell-based; settings: for status on additional testing: FIG. 5
Experimental: A set of variant peptides was ordered based on the sequences of peptides #1 (SEQ ID NO:2), #27 (SEQ ID NO:28), and #40 (SEQ ID NO:41). An alanine scan was performed for each peptide. In addition, variant peptides were ordered that corresponded to the peptide sequences as described by Runkel et al., (Runkel et al., Biochem., 39:2538-2551 [2000]). These variant peptides were synthesized by Mimotopes (San Diego, Calif.) using the multi-pin synthesis technique known in the art (See e.g., Maeji et al., J. Immunol. Meth., 134:23-33 [1990]).
The I-IMUNE® assay was performed as described in Example 3, utilizing the variant peptides on a set of 103 donor samples. […] Epitope #40 returned a consistent donor response percent of 15%.

human CD4+ T-cells [2] = assay: I-MUNE assay of IFN-β 15mer peptides (T-cell proliferation); type: cell-based; settings: percent of donors with proliferative response at least 2.95 times baseline; 87 donors; 5 μM peptide
Experimental: Fresh human peripheral blood cells were collected from 87 humans of unknown exposure status to IFN-β. These cells were tested to determine antigenic epitopes in IFN-β, as described in Example 3.
Peripheral mononuclear blood cells (stored at room temperature, no older than 24 hours) were prepared for use as follows: Approximately 30 mls of a solution of buffy coat preparation from one unit of whole blood was brought to 50 ml with Dulbecco's phosphate buffered solution (DPBS) and split into two tubes. The samples were underlaid with 12.5 ml of room temperature Lymphoprep density separation media (Nycomed; Pharma AS; Density 1.077 g/ml). The tubes were centrifuged for thirty minutes at 600×g. The interface of the two phases was collected, pooled and washed in DPBS. The cell density of the resultant solution was measured by hemocytometer, as known in the art. Viability was measured by trypan blue exclusion, as known in the art. […]
CD4+ T cells were prepared from frozen aliquots of the peripheral blood cell samples used to prepare the dendritic cells, using reagents provided by the Dynal CD4+ T-cell enrichment kit (Dynal). The resultant CD4+ cell solution was centrifuged, resuspended in AIMV media and the cell density was determined using methods known in the art. […]

human CD4+ T-cells [3] = assay: I-MUNE assay of human thrombopoietin peptides; type: cell-based
Experimental: Peptides for use in the I-MUNE® assay as described in Example 3 were prepared based on the sequence of the first 152 residues of human thrombopoietin (i.e., the active domain of TPO), as well as the entire TPO sequence, including the CHO binding domain (GenBank Accession No. P40225) with the sequence:
The I-MUNE® assay described in Example 3, was conducted using cells obtained from 99 donors. The background was determined to be 2.5, and the standard deviation was 9.2. FIG. 7 provides a graph showing the data obtained in the I-MUNE® assay with the first 152 residues of TPO (i.e., the active domain).
FIG. 8 provides a graph showing the results for the I-MUNE® assay conducted using the entire TPO molecule, including the CHO binding domain.
FIG. 9, Panels A and B provide graphs showing the results for TPO epitope #45, in which the critical residues were tested. The average parental residue response was 9.18±1.82. Values less that 3.5% were equivalent to 3 standard deviations under the averaged response of the parent peptides.

human CD4+ T-cells [4] = assay: I-MUNE assay of human erythropoietin peptides; type: cell-based; settings: 59 donors; FIG. 11
Experimental: Peptides for use in the I-MUNE® assay as described in Example 3 were prepared based on the sequence of human erythropoietin (EPO), (GenBank Accession No. P1588), with the sequence:
The I-MUNE® assay described in Example 3, was conducted using cells obtained from 59 donors. FIG. 11 provides a graph showing the data obtained in the I-MUNE® assay with the pepset produced from the EPO sequence above (SEQ ID NO:108). […] Peptide #34 has the sequence SGLRSLTTLLRALGA (SEQ ID NO:109), and peptide #48 has the sequence FRVYSNFLRGKLKLY (SEQ ID NO:110). As active mutants have been made in the region represented by peptides #34 and #48 (See, Elliott et al., 89:493-502 [1997]), it is contemplated that amino acid modifications in or around these peptides will provide variant EPO suitable for use as an EPO substitute.

human CD4+ T-cells [5] = assay: I-MUNE assay of soluble human TNF-R1 peptides; type: cell-based; settings: FIG. 10
Experimental: Peptides for use in the I-MUNE® assay as described in Example 3 were prepared based on the sequence of the soluble human tumor necrosis factor receptor 1 (TNF-R1) (GenBank Accession No. P19438) with the sequence:
The background was determined to be 2.23 and the value for three standard deviations was 8.07. This epitope has the sequence CSLCLNGTVHLSCQE (SEQ ID NO:107). […] This variant was then reported to have a reduced immunogenic capacity when tested in a non-human primate (See, Rosenberg et al., J. Appl. Physiol., 91:2213-2223 [2001]). Thus, it is contemplated that modifications in this epitope will provide advantages in the development of sTNFR-1 for use in treatment.

With “peptide #40: 15mer peptide of human IFN-β pepset, SEQ ID NO:41; identified CD4+ T-cell epitope (SSLHLKRYYGRILHY)” the “magnitude of the proliferative response in responders expressing HLA-DQ6 versus responders not expressing HLA-DQ6” value (HLA-DR and -DQ antigens; FIG. 6, responder = stimulation index greater than 2.95) was “significantly higher”, the percent non-responsive (HLA-DR and -DQ antigens; HLA-DQ6) was 25% and the percent responsive (HLA-DR and -DQ antigens; HLA-DQ6) was 61%. For the same substance, the relative risk (HLA-DR and -DQ antigens; HLA-DQ6) was 3.58, the percent non-responsive (HLA-DR and -DQ antigens; HLA-DR1) was 3% and the percent responsive (HLA-DR and -DQ antigens; HLA-DR1) was 17%. For the same substance, the relative risk (HLA-DR and -DQ antigens; HLA-DR1) was 0.19, the percent non-responsive (HLA-DR and -DQ antigens; HLA-DR15) was 15% and the percent responsive (HLA-DR and -DQ antigens; HLA-DR15) was 39%. The relative risk (HLA-DR and -DQ antigens; HLA-DR15) was 2.68, the donor response percent (human CD4+ T-cells [1]; 103 donor samples) was 15% and the percent response (human CD4+ T-cells [2]) was 18.18%.

With “RAPPTTAVPSRTSLVLTL (listed as Homo sapiens) [peptide #45]” the response (human CD4+ T-cells [3]; TPO epitope #45 critical residue testing, FIG. 9) was 9.18±1.82% and the epitope identification (human CD4+ T-cells [3]; entire TPO molecule, 99 donors, FIG. 8) was “epitope of interest”.

With “peptide #27: 15mer peptide of human IFN-β pepset, SEQ ID NO:28 (WNETIVENLLANVYR)” the “status on additional testing” value (human CD4+ T-cells [1]) was “non-statistically relevant”.

With “FRVYSNFLRGKLKLY (listed as Homo sapiens) [peptide #48]” the epitope identification (human CD4+ T-cells [4]) was “Epitopes of interest”.

With “SGLRSLTTLLRALGA (listed as Homo sapiens) [peptide #34]” the epitope identification (human CD4+ T-cells [4]) was “Epitopes of interest”.

“CSLCLNGTVHLSCQE (listed as Homo sapiens) [SEQ ID NO:107]” was tested, and the epitope identification (human CD4+ T-cells [5]) was “significant epitope”.

For “peptide #1: 15mer peptide of human IFN-β pepset, SEQ ID NO:2 (MSYNLLGFLQRSSNF)”, the “status on additional testing” value (human CD4+ T-cells [1]) was “non-statistically relevant” and the percent response (human CD4+ T-cells [2]) was at least 9.51%.
